{
  "source": "PubChem BioAssay AID1963968",
  "about": "(Molecular Pharmacology Branch, DTP, NCI, 2024)",
  "system": "945468-187-T-J3-PDC spheroids with HUVEC/MSC, viability",
  "test": "Anticancer human tumor 945468-187-T-J3-PDC patient-derived rectal carcinoma cell line growth inhibition [PI3K]",
  "conditions": "for IC50: curve of first compound; for viability, T/C: stronger effect = lower value",
  "method_in_brief": "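Multi-cell spheroids combine tumor cells with HUVEC and human MSCs, treated with targeted agents alone or with inavolisib, alpelisib, duvelisib or copanlisib. Concentrations fall in half-log steps from at or near clinical Cmax, or from 10 microM where Cmax is unknown; viability read-out.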",
  "key": {"[1]": {"conditions": "second compound 0.00316 µM, first compound 0.0316 µM"}, "[2]": {"conditions": "second compound 0.00316 µM, first compound 0.1 µM"}, "[3]": {"conditions": "second compound 0.00316 µM, first compound 0.316 µM"}, "[4]": {"conditions": "second compound 0.00316 µM, first compound 1 µM"}, "[5]": {"conditions": "second compound 0.01 µM, first compound 0.0316 µM"}, "[6]": {"conditions": "second compound 0.01 µM, first compound 0.1 µM"}, "[7]": {"conditions": "second compound 0.01 µM, first compound 0.316 µM"}, "[8]": {"conditions": "second compound 0.01 µM, first compound 1 µM"}, "[9]": {"conditions": "second compound 0.0316 µM, first compound 0.0316 µM"}, "[10]": {"conditions": "second compound 0.0316 µM, first compound 0.1 µM"}, "[11]": {"conditions": "second compound 0.0316 µM, first compound 0.316 µM"}, "[12]": {"conditions": "second compound 0.0316 µM, first compound 1 µM"}, "[13]": {"conditions": "second compound 0.1 µM, first compound 0.0316 µM"}, "[14]": {"conditions": "second compound 0.1 µM, first compound 0.1 µM"}, "[15]": {"conditions": "second compound 0.1 µM, first compound 0.316 µM"}, "[16]": {"conditions": "second compound 0.1 µM, first compound 1 µM"}, "[17]": {"conditions": "second compound 0.316 µM, first compound 0.0316 µM"}, "[18]": {"conditions": "second compound 0.316 µM, first compound 0.1 µM"}, "[19]": {"conditions": "second compound 0.316 µM, first compound 0.316 µM"}, "[20]": {"conditions": "second compound 0.316 µM, first compound 1 µM"}, "[21]": {"conditions": "second compound 1 µM, first compound 0.0316 µM"}, "[22]": {"conditions": "second compound 1 µM, first compound 0.1 µM"}, "[23]": {"conditions": "second compound 1 µM, first compound 0.316 µM"}, "[24]": {"conditions": "second compound 1 µM, first compound 1 µM"}},
  "data": [
    {"compound": "CC(C)NCC(C(=O)N1CCN(c2ncnc3c2C(C)CC3O)CC1)c1ccc(Cl)cc1", "note": "(centres undefined) + COc1c(OCCCN2CCOCC2)ccc2c3n(c(=NC(=O)c4cnc(N)nc4)nc12)CCN3;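 further: spheroids exposed to agents for 7 days before viability read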;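 on viability, T/C: 100% = DMSO vehicle control viability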", "values": [
      {"measurement": "IC50", "setting": "second compound 0.00316 µM", "result": 3680, "unit": "nM"},
      {"measurement": "IC50", "setting": "second compound 0.01 µM", "result": 3740, "unit": "nM"},
      {"measurement": "IC50", "setting": "second compound 0.0316 µM", "result": 1850, "unit": "nM"},
      {"measurement": "IC50", "setting": "second compound 0.1 µM", "result": "< 31.6", "unit": "nM"},
      {"measurement": "IC50", "setting": "second compound 0.316 µM", "result": "< 31.6", "unit": "nM"},
      {"measurement": "IC50", "setting": "second compound 1 µM", "result": "< 31.6", "unit": "nM"},
      {"measurement": "viability, T/C", "setting": "[1]", "result": 94.2, "unit": "%"},
      {"measurement": "viability, T/C", "setting": "[2]", "result": 83.3, "unit": "%"},
      {"measurement": "viability, T/C", "setting": "[3]", "result": 88.8, "unit": "%"},
      {"measurement": "viability, T/C", "setting": "[4]", "result": 70.6, "unit": "%"},
      {"measurement": "viability, T/C", "setting": "second compound 0.00316 µM, first compound 3.16 µM", "result": 52.1, "unit": "%"},
      {"measurement": "viability, T/C", "setting": "second compound 0.00316 µM, first compound 10 µM", "result": 39.4, "unit": "%"},
      {"measurement": "viability, T/C", "setting": "[5]", "result": 92.6, "unit": "%"},
      {"measurement": "viability, T/C", "setting": "[6]", "result": 80.9, "unit": "%"},
      {"measurement": "viability, T/C", "setting": "[7]", "result": 89.3, "unit": "%"},
      {"measurement": "viability, T/C", "setting": "[8]", "result": 81.7, "unit": "%"},
      {"measurement": "viability, T/C", "setting": "second compound 0.01 µM, first compound 3.16 µM", "result": 53.8, "unit": "%"},
      {"measurement": "viability, T/C", "setting": "second compound 0.01 µM, first compound 10 µM", "result": 28.2, "unit": "%"},
      {"measurement": "viability, T/C", "setting": "[9]", "result": 79, "unit": "%"},
      {"measurement": "viability, T/C", "setting": "[10]", "result": 84.4, "unit": "%"},
      {"measurement": "viability, T/C", "setting": "[11]", "result": 66.7, "unit": "%"},
      {"measurement": "viability, T/C", "setting": "[12]", "result": 71.8, "unit": "%"},
      {"measurement": "viability, T/C", "setting": "second compound 0.0316 µM, first compound 3.16 µM", "result": 31.1, "unit": "%"},
      {"measurement": "viability, T/C", "setting": "second compound 0.0316 µM, first compound 10 µM", "result": 25.8, "unit": "%"},
      {"measurement": "viability, T/C", "setting": "[13]", "result": 39, "unit": "%"},
      {"measurement": "viability, T/C", "setting": "[14]", "result": 45.5, "unit": "%"},
      {"measurement": "viability, T/C", "setting": "[15]", "result": 43.4, "unit": "%"},
      {"measurement": "viability, T/C", "setting": "[16]", "result": 27.9, "unit": "%"},
      {"measurement": "viability, T/C", "setting": "second compound 0.1 µM, first compound 3.16 µM", "result": 23.5, "unit": "%"},
      {"measurement": "viability, T/C", "setting": "second compound 0.1 µM, first compound 10 µM", "result": 18.6, "unit": "%"},
      {"measurement": "viability, T/C", "setting": "[17]", "result": 19.8, "unit": "%"},
      {"measurement": "viability, T/C", "setting": "[18]", "result": 19.3, "unit": "%"},
      {"measurement": "viability, T/C", "setting": "[19]", "result": 17.6, "unit": "%"},
      {"measurement": "viability, T/C", "setting": "[20]", "result": 18, "unit": "%"},
      {"measurement": "viability, T/C", "setting": "second compound 0.316 µM, first compound 3.16 µM", "result": 19.5, "unit": "%"},
      {"measurement": "viability, T/C", "setting": "second compound 0.316 µM, first compound 10 µM", "result": 13.3, "unit": "%"},
      {"measurement": "viability, T/C", "setting": "[21]", "result": 18.6, "unit": "%"},
      {"measurement": "viability, T/C", "setting": "[22]", "result": 13.7, "unit": "%"},
      {"measurement": "viability, T/C", "setting": "[23]", "result": 15.8, "unit": "%"},
      {"measurement": "viability, T/C", "setting": "[24]", "result": 13.6, "unit": "%"},
      {"measurement": "viability, T/C", "setting": "second compound 1 µM, first compound 3.16 µM", "result": 19.7, "unit": "%"},
      {"measurement": "viability, T/C", "setting": "second compound 1 µM, first compound 10 µM", "result": 11.8, "unit": "%"}
    ]},
    {"compound": "CCN1CCN(Cc2ccc(Nc3ncc(F)c(-c4cc(F)c5nc(C)n(C(C)C)c5c4)n3)nc2)CC1", "note": "+ COc1c(OCCCN2CCOCC2)ccc2c3n(c(=NC(=O)c4cnc(N)nc4)nc12)CCN3", "values": [
      {"measurement": "IC50", "setting": "second compound 0.00316 µM", "result": "> 1000", "unit": "nM"},
      {"measurement": "IC50", "setting": "second compound 0.01 µM", "result": 662, "unit": "nM"},
      {"measurement": "IC50", "setting": "second compound 0.0316 µM", "result": 256, "unit": "nM"},
      {"measurement": "IC50", "setting": "second compound 0.1 µM", "result": 5.32, "unit": "nM"},
      {"measurement": "IC50", "setting": "second compound 0.316 µM", "result": "< 3.16", "unit": "nM"},
      {"measurement": "IC50", "setting": "second compound 1 µM", "result": "< 3.16", "unit": "nM"},
      {"measurement": "viability, T/C", "setting": "second compound 0.00316 µM, first compound 0.00316 µM", "result": 88.6, "unit": "%"},
      {"measurement": "viability, T/C", "setting": "second compound 0.00316 µM, first compound 0.01 µM", "result": 83.6, "unit": "%"},
      {"measurement": "viability, T/C", "setting": "[1]", "result": 80.5, "unit": "%"},
      {"measurement": "viability, T/C", "setting": "[2]", "result": 82.3, "unit": "%"},
      {"measurement": "viability, T/C", "setting": "[3]", "result": 95.2, "unit": "%"},
      {"measurement": "viability, T/C", "setting": "[4]", "result": 53.5, "unit": "%"},
      {"measurement": "viability, T/C", "setting": "second compound 0.01 µM, first compound 0.00316 µM", "result": 107, "unit": "%"},
      {"measurement": "viability, T/C", "setting": "second compound 0.01 µM, first compound 0.01 µM", "result": 82.3, "unit": "%"},
      {"measurement": "viability, T/C", "setting": "[5]", "result": 110, "unit": "%"},
      {"measurement": "viability, T/C", "setting": "[6]", "result": 89.8, "unit": "%"},
      {"measurement": "viability, T/C", "setting": "[7]", "result": 79.4, "unit": "%"},
      {"measurement": "viability, T/C", "setting": "[8]", "result": 33.8, "unit": "%"},
      {"measurement": "viability, T/C", "setting": "second compound 0.0316 µM, first compound 0.00316 µM", "result": 90.2, "unit": "%"},
      {"measurement": "viability, T/C", "setting": "second compound 0.0316 µM, first compound 0.01 µM", "result": 81.8, "unit": "%"},
      {"measurement": "viability, T/C", "setting": "[9]", "result": 82.2, "unit": "%"},
      {"measurement": "viability, T/C", "setting": "[10]", "result": 75.1, "unit": "%"},
      {"measurement": "viability, T/C", "setting": "[11]", "result": 44.3, "unit": "%"},
      {"measurement": "viability, T/C", "setting": "[12]", "result": 22.3, "unit": "%"},
      {"measurement": "viability, T/C", "setting": "second compound 0.1 µM, first compound 0.00316 µM", "result": 57, "unit": "%"},
      {"measurement": "viability, T/C", "setting": "second compound 0.1 µM, first compound 0.01 µM", "result": 41.3, "unit": "%"},
      {"measurement": "viability, T/C", "setting": "[13]", "result": 30.7, "unit": "%"},
      {"measurement": "viability, T/C", "setting": "[14]", "result": 24.1, "unit": "%"},
      {"measurement": "viability, T/C", "setting": "[15]", "result": 18.2, "unit": "%"},
      {"measurement": "viability, T/C", "setting": "[16]", "result": 17.9, "unit": "%"},
      {"measurement": "viability, T/C", "setting": "second compound 0.316 µM, first compound 0.00316 µM", "result": 25.4, "unit": "%"},
      {"measurement": "viability, T/C", "setting": "second compound 0.316 µM, first compound 0.01 µM", "result": 16.3, "unit": "%"},
      {"measurement": "viability, T/C", "setting": "[17]", "result": 14.8, "unit": "%"},
      {"measurement": "viability, T/C", "setting": "[18]", "result": 16.9, "unit": "%"},
      {"measurement": "viability, T/C", "setting": "[19]", "result": 17.1, "unit": "%"},
      {"measurement": "viability, T/C", "setting": "[20]", "result": 16.6, "unit": "%"},
      {"measurement": "viability, T/C", "setting": "second compound 1 µM, first compound 0.00316 µM", "result": 15.2, "unit": "%"},
      {"measurement": "viability, T/C", "setting": "second compound 1 µM, first compound 0.01 µM", "result": 16.1, "unit": "%"},
      {"measurement": "viability, T/C", "setting": "[21]", "result": 13.6, "unit": "%"},
      {"measurement": "viability, T/C", "setting": "[22]", "result": 16.8, "unit": "%"},
      {"measurement": "viability, T/C", "setting": "[23]", "result": 19, "unit": "%"},
      {"measurement": "viability, T/C", "setting": "[24]", "result": 16.4, "unit": "%"}
    ]}
  ]
}
